{
  "source": "patent US20210298307A1",
  "about": "(priority 2020, published 2021)",
  "key": {"Ralstonia solanacearum": {"system": "Ralstonia solanacearum", "type": "in vivo", "details": "beef tomato, foliar spray at 3 and 10 dpi, 5 mg/L IBA and/or 15 mg/L Kinetin in 0.1% (v/v) Tween 80; for Severity score at days post infection (dpi): 9 / Severity score at days post infection (dpi): 11 / Severity score at days post infection (dpi): 13: 0-5 disease scale, mean n=12; for Severity score at days post infection (dpi): 9: 9 dpi; for Severity score at days post infection (dpi): 11: 11 dpi; for Severity score at days post infection (dpi): 13 / Survival Rate (13 dpi): 13 dpi; for Survival Rate (13 dpi): n=12"}, "R. solanacearum [1]": {"system": "R. solanacearum", "type": "in vivo, Ralstonia solanacearum", "details": "beef tomato, soil drench at 3 and 10 dpi, 5 mg/L IBA and/or 15 mg/L Kinetin; for Severity score at days post infection (dpi): 9 / Severity score at days post infection (dpi): 11 / Severity score at days post infection (dpi): 13: 0-5 disease scale, mean n=12; for Severity score at days post infection (dpi): 9: 9 dpi; for Severity score at days post infection (dpi): 11: 11 dpi; for Severity score at days post infection (dpi): 13 / Survival Rate (13 dpi): 13 dpi; for Survival Rate (13 dpi): n=12"}, "R. solanacearum [2]": {"system": "R. solanacearum", "type": "in vivo, Ralstonia solanacearum", "details": "beef tomato, soil drench before inoculation and at 3 and 10 dpi, 5 mg/L IBA and/or 20 mg/L Kinetin; for Severity score at days post infection (dpi): 9 / Severity score at days post infection (dpi): 11 / Severity score at days post infection (dpi): 13: 0-5 disease scale, mean n=12; for Severity score at days post infection (dpi): 9: 9 dpi; for Severity score at days post infection (dpi): 11: 11 dpi; for Severity score at days post infection (dpi): 13 / Survival Rate (13 dpi): 13 dpi; for Survival Rate (13 dpi): n=12"}},
  "note": "Where two headings read alike, the source gives them in different places. Marks after values point to notes of the source that are not given here.",
  "data": [
    {"compound": "O=C(O)CCCc1c[nH]c2ccccc12", "note": "[IBA, indole-3-butyric acid]", "values": [
      {"measurement": "Severity score at days post infection (dpi): 9", "setting": "Ralstonia solanacearum", "result": "0.25*"},
      {"measurement": "Severity score at days post infection (dpi): 11", "setting": "Ralstonia solanacearum", "result": 2.50},
      {"measurement": "Severity score at days post infection (dpi): 13", "setting": "Ralstonia solanacearum", "result": 3.25},
      {"measurement": "Survival Rate (13 dpi)", "setting": "Ralstonia solanacearum", "result": 58, "unit": "%"},
      {"measurement": "Severity score at days post infection (dpi): 9", "setting": "R. solanacearum [1]", "result": "0.25*"},
      {"measurement": "Severity score at days post infection (dpi): 11", "setting": "R. solanacearum [1]", "result": "1.00*"},
      {"measurement": "Severity score at days post infection (dpi): 13", "setting": "R. solanacearum [1]", "result": 2.50},
      {"measurement": "Survival Rate (13 dpi)", "setting": "R. solanacearum [1]", "result": 67, "unit": "%"},
      {"measurement": "Severity score at days post infection (dpi): 9", "setting": "R. solanacearum [2]", "result": 0.92},
      {"measurement": "Severity score at days post infection (dpi): 11", "setting": "R. solanacearum [2]", "result": 1.58},
      {"measurement": "Severity score at days post infection (dpi): 13", "setting": "R. solanacearum [2]", "result": "2.17*"},
      {"measurement": "Survival Rate (13 dpi)", "setting": "R. solanacearum [2]", "result": 75, "unit": "%"}
    ]},
    {"compound": "c1coc(CNc2ncnc3nc[nH]c23)c1", "note": "[Kinetin, N6-furfuryladenine]", "values": [
      {"measurement": "Severity score at days post infection (dpi): 9", "setting": "Ralstonia solanacearum", "result": 0.42},
      {"measurement": "Severity score at days post infection (dpi): 11", "setting": "Ralstonia solanacearum", "result": 2.08},
      {"measurement": "Severity score at days post infection (dpi): 13", "setting": "Ralstonia solanacearum", "result": 3.17},
      {"measurement": "Survival Rate (13 dpi)", "setting": "Ralstonia solanacearum", "result": 58, "unit": "%"},
      {"measurement": "Severity score at days post infection (dpi): 9", "setting": "R. solanacearum [1]", "result": "0.25*"},
      {"measurement": "Severity score at days post infection (dpi): 11", "setting": "R. solanacearum [1]", "result": "1.08*"},
      {"measurement": "Severity score at days post infection (dpi): 13", "setting": "R. solanacearum [1]", "result": 2.58},
      {"measurement": "Survival Rate (13 dpi)", "setting": "R. solanacearum [1]", "result": 75, "unit": "%"},
      {"measurement": "Severity score at days post infection (dpi): 9", "setting": "R. solanacearum [2]", "result": 0.83},
      {"measurement": "Severity score at days post infection (dpi): 11", "setting": "R. solanacearum [2]", "result": 1.42},
      {"measurement": "Severity score at days post infection (dpi): 13", "setting": "R. solanacearum [2]", "result": "2.08*"},
      {"measurement": "Survival Rate (13 dpi)", "setting": "R. solanacearum [2]", "result": 75, "unit": "%"}
    ]}
  ]
}
